In brackets after ≈: the same amount, converted by molar mass.
Assays:
[1] = tested on: Staphylococcus aureus-SMITH (GC 4543); test: acute lethal infection in mice; type: in vivo; conditions: acute lethal infection, female CD-1 mice, intraperitoneal challenge, intravenous 30 min. after infection, 7 day survival
Protocol: Methods for in Vivo Antibacterial Evaluation
The therapeutic effects of glycopeptide antibiotics of Formula I are determined against acute lethal infections with S. aureus (strain Smith), a penicillin resistant strain of S. pneumoniae (strain GC 1894), and a vancomycin resistant strain of E. fecalis (strain GC 6189 and GC 2246). Female mice, CD-1 (Charles River Laboratories), 20+/−2 gm, are challenged by intraperitoneal injection of sufficient bacteria (suspended in /trypticase Soy Broth or hog gastric mucin) to kill non-treated controls within 24-48 hr. Antibacterial agents, contained in 0.2 mL of saline or 5% dextrose solution, are administered intravenously 30 min. after infection. Five mice are treated at each dose level. The 7 day survival ratios from 3 separate tests are pooled for calculation of median effective dose (ED50).

[2] = tested on: Escherichia coli; test: in vitro antibacterial evaluation, MIC by broth dilution; type: cell-based; conditions: 18 hours at 35° C.
Method in brief: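 Broth dilution per NCCLS standard M7-A2 in Muller-Hinton II […], with an inoculum of 5×10^5 CFU/mL and antibiotic spanning 64-0.06 μg/mL. The MIC is the lowest concentration that inhibits growth of the organism.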

[3] = tested on: Enterococcus sp.; test: as above; type: cell-based; conditions: broth dilution, 18 hours at 35° C.
Method in brief: (§1)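 Following National Committee for Clinical Laboratory Standards recommendations (M7-A2), susceptibility was measured by dilution in Muller-Hinton II […]. Bacteria were seeded at 5×10^5 CFU/mL against compound concentrations from 64 down to 0.06 μg/mL.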

[4] = tested on: Staphylococcus sp.; test: as above; type: cell-based; conditions: broth dilution, 18 hours at 35° C.
Method in brief: as §1

[5] = tested on: Streptococcus sp.; test: as above; type: cell-based; conditions: broth dilution, 18 hours at 35° C.
Method in brief: as §1

CC(C)CC(=O)OC1C(O)C(CO)OC(OC2C(CO)OC(Oc3ccc(CC4NC(=O)C(C(C)c5ccc(Cl)cc5)NC(=O)CNC(=O)C(CO)NC(=O)C(C(O)C5CNC(=N)N5C5OC(CO)C(O)C(O)C5O)NC(=O)C(C(O)C5CNC(=N)N5)NC4=O)cc3)C(O)C2O)C1O (stereo not drawn) [Example 262b, Cyclo[glycyl-4-chloro-β-methylphenylalanyl-O-[4-O-[3-O-(3-methylbutanoyl)hexopyranosyl]-hexopyranosyl]tyrosyl-3-(2-iminoimidazolidin-4-yl)seryl-3-(3-hexopyranosyl-2-iminoimidazolidin-4-yl)serylseryl]]
median effective dose (ED50), Staphylococcus aureus-SMITH (GC 4543) [1]: 1.22 mg/kg
MIC Escherichia coli (ATCC 25922) ([2]; Escherichia coli (ATCC 25922)): >64 µg/mL
MIC Escherichia coli (GC 4559) ([2]; Escherichia coli (GC 4559)): >64 µg/mL
MIC Escherichia coli (GC 4560) ([2]; Escherichia coli (GC 4560)): 1 µg/mL (≈ 0.707 µM)
MIC Enterococcus avium (GC 4558) ([3]; Enterococcus avium (GC 4558)): 16 µg/mL (≈ 11.3 µM)
MIC Enterococcus faecalis (ATCC 29212) ([3]; Enterococcus faecalis (ATCC 29212)): 32 µg/mL (≈ 22.6 µM)
MIC Enterococcus faecalis (GC 4553) ([3]; Enterococcus faecalis (GC 4553)): 32 µg/mL (≈ 22.6 µM)
MIC Enterococcus faecalis (GC 4554) ([3]; Enterococcus faecalis (GC 4554)): 32 µg/mL (≈ 22.6 µM)
MIC Enterococcus faecium (GC 2243) ([3]; Enterococcus faecium (GC 2243)): 16 µg/mL (≈ 11.3 µM)
MIC Enterococcus faecium (GC 4556) ([3]; Enterococcus faecium (GC 4556)): 16 µg/mL (≈ 11.3 µM)
MIC Enterococcus faecium (GC 4557) ([3]; Enterococcus faecium (GC 4557)): 2 µg/mL (≈ 1.41 µM)
MIC Enterococcus faecalis (ATCC 29212) ([3]; strain ATCC 29212): 32 µg/mL (≈ 22.6 µM)
MIC Enterococcus faecalis (GC 2242) ([3]; strain GC 2242): 16 µg/mL (≈ 11.3 µM)
MIC Enterococcus faecium (GC 2243) ([3]; strain GC 2243): 16 µg/mL (≈ 11.3 µM)
MIC Enterococcus faecalis (GC 4552) ([3]; strain GC 4552): 32 µg/mL (≈ 22.6 µM)
MIC Enterococcus faecalis (GC 4553) ([3]; strain GC 4553): 32 µg/mL (≈ 22.6 µM)
MIC Enterococcus faecalis (GC 4554) ([3]; strain GC 4554): 32 µg/mL (≈ 22.6 µM)
MIC Enterococcus faecium (GC 4556) ([3]; strain GC 4556): 16 µg/mL (≈ 11.3 µM)
MIC Enterococcus faecium (GC 4557) ([3]; strain GC 4557): 2 µg/mL (≈ 1.41 µM)
MIC Enterococcus avium (GC 4558) ([3]; strain GC 4558): 16 µg/mL (≈ 11.3 µM)
MIC Coagulase Negative Staphylococcus (GC 4547) [4]: 2 µg/mL (≈ 1.41 µM)
MIC Coagulase Negative Staphylococcus (GC 4548) [4]: 1 µg/mL (≈ 0.707 µM)
MIC Coagulase Negative Staphylococcus (GC 4549) [4]: 1 µg/mL (≈ 0.707 µM)
MIC Coagulase Negative Staphylococcus (GC 4551) [4]: 2 µg/mL (≈ 1.41 µM)
MIC Staphylococcus aureus (ATCC 29213) [4]: 4 µg/mL (≈ 2.83 µM)
MIC Staphylococcus aureus (GC 1131) [4]: 4 µg/mL (≈ 2.83 µM)
MIC Staphylococcus aureus (GC 4541) [4]: 2 µg/mL (≈ 1.41 µM)
MIC Staphylococcus aureus (GC 4542) [4]: 2 µg/mL (≈ 1.41 µM)
MIC Staphylococcus aureus (GC 4544) [4]: 4 µg/mL (≈ 2.83 µM)
MIC Staphylococcus aureus (GC 4545) [4]: 2 µg/mL (≈ 1.41 µM)
MIC Staphylococcus aureus-SMITH (GC 4543) [4]: 1 µg/mL (≈ 0.707 µM)
MIC Staphylococcus haemolyticus (GC 4546) [4]: 2 µg/mL (≈ 1.41 µM)
MIC Staphylococcus aureus (ATCC 29213) ([4]; strain ATCC 29213): 4 µg/mL (≈ 2.83 µM)
MIC Staphylococcus aureus (GC 1131) ([4]; strain GC 1131): 4 µg/mL (≈ 2.83 µM)
MIC Staphylococcus aureus (GC 4541) ([4]; strain GC 4541): 2 µg/mL (≈ 1.41 µM)
MIC Staphylococcus aureus (GC 4542) ([4]; strain GC 4542): 2 µg/mL (≈ 1.41 µM)
MIC Staphylococcus aureus (GC 4544) ([4]; strain GC 4544): 4 µg/mL (≈ 2.83 µM)
MIC Staphylococcus aureus (GC 4545) ([4]; strain GC 4545): 2 µg/mL (≈ 1.41 µM)
MIC Staphylococcus haemolyticus (GC 4546) ([4]; strain GC 4546): 2 µg/mL (≈ 1.41 µM)
MIC Coagulase Negative Staphylococcus (GC 4547) ([4]; strain GC 4547): 2 µg/mL (≈ 1.41 µM)
MIC Coagulase Negative Staphylococcus (GC 4548) ([4]; strain GC 4548): 1 µg/mL (≈ 0.707 µM)
MIC Coagulase Negative Staphylococcus (GC 4549) ([4]; strain GC 4549): 1 µg/mL (≈ 0.707 µM)
MIC Coagulase Negative Staphylococcus (GC 4551) ([4]; strain GC 4551): 2 µg/mL (≈ 1.41 µM)
MIC Staphylococcus aureus-SMITH (GC 4543) ([4]; strain SMITH GC 4543): 1 µg/mL (≈ 0.707 µM)
MIC Streptococcus agalactiae (GC 4564) ([5]; strain GC 4564): 1 µg/mL (≈ 0.707 µM)
MIC Streptococcus pyogenes (ID-3187) ([5]; strain ID-3187): 1 µg/mL (≈ 0.707 µM)

Reference: patent US6914045B2, “Glycopeptide antibiotics” (Wyeth Holdings Corporation, priority 2001, dated 2005)
